Test results: patent publication US20170298056A1, “SMALL MOLECULE INHIBITORS OF HIV-1 ENTRY AND METHODS OF USE THEREOF” (Dana-Farber Cancer Institute, Inc., priority 2014, published 2017)
Where two headings read alike, the source gives them in different places.

What was measured:
[1] = test system: F-luc expression in H-Fluc4 cells; experiment: Specificity control assay (induced firefly luciferase, H-Fluc4 cells); format: cell-based
Experimental: H-JRFL#1336 (effector) and H-Fluc4 (control) cells were grown in DMEM containing 10% FBS, 100 μg/ml streptomycin, 100 units/ml penicillin, 200 μg/ml G418, 1 μg/ml puromycin and 2 μg/ml doxycycline. H-JRFL#13 cells carry an HIV-1JR-FL env gene that is induced by growing the cells in the absence of doxycycline (Tet-Off expression system). H-Fluc4 cells, which carry a firefly luciferase gene that is induced in the absence of doxycycline, were used as specificity controls. Both cell lines were derived from HeLa cells and constitutively express the tetracycline-regulated transactivator (Tet-Off expression system). […]
H-JRFL#13 or H-FLuc4 cells were washed thrice, detached with StemPro Accutase, centrifuged at 200×g for 6 minutes at 10° C. and seeded in DMEM containing 10% tetracycline-approved FBS, 100 μg/ml streptomycin, 100 units/ml penicillin, 100 μg/ml G418, 1 μg/ml puromycin and without Phenol Red. […] Firefly luciferase activity was measured using an EnVision Multilabel Plate Reader (PerkinElmer, Boston, Mass.). […]
To identify new molecules that potentially affect HIV-1 entry, a cell-cell fusion assay that mimics the entry of HIV-1 into cells was established (FIG. 1a). The assay uses a firefly luciferase (F-luc) readout to measure the fusion of HeLa effector cells that express the Envs from a primary HIV-1 strain and target cells coexpressing the CD4 and CCR5 receptors. […]

[2] = test system: all CCR5-using HIV-1 isolates; experiment: Viral infection assay, panel of CCR5-using HIV-1 isolates; format: cell-based; details: Cf2Th-CD4/CCR5 cells
Experimental: (§1) Production of recombinant HIV-1 expressing luciferase. […] After 48 hours, the supernatant was collected, buffered with 50 mM Hepes pH 7.4 (final concentration) and centrifuged for 5 minutes at 750×g and 4° C. The virus-containing supernatant was used directly or frozen at −80° C.
Viral infection assay. Each test compound was serially diluted in DMSO in a 96-well B&W isoplate (PerkinElmer, Boston, Mass.) using an HP D300 Digital Dispenser, to a final volume of 450 nl. DMSO was used as a control. Viruses pseudotyped with a specific Env were added to each well and incubated briefly at room temperature. Cf2Th-CD4/CCR5 cells were detached with StemPro Accutase Cell Dissociation Reagent (Invitrogen, cat #A11105-01), washed once, and 5000 cells were added to each well. […] Following incubation, the medium was aspirated and cells were lysed with 30 μl of Passive Lysis Buffer (Promega, cat #E1941). The activity of the firefly luciferase, which was used as a reporter protein in the system, was measured with a Centro LB 960 luminometer (Berthold Technologies, Oak Ridge, Tenn.). One hundred microliters of assay buffer (15 mM MgSO4, 15 mM KH2PO4/K2HPO4 pH 7.8, 1 mM ATP and 1 mM DTT) was injected to each well, followed by a 50 μl injection of 1 mM Dluciferin potassium salt (BD Pharmingen, San Jose, Calif.); luminescence was measured for 2 sec. […]

[3] = test system: amphotropic murine leukemia virus (A-MLV); experiment: Viral infection assay, control virus with A-MLV envelope; format: cell-based
Experimental: as §1
(§2) Viral infection assay. Each test compound was serially diluted in DMSO in a 96-well B&W isoplate (PerkinElmer, Boston, Mass.) using an HP D300 Digital Dispenser, to a final volume of 450 nl. DMSO was used as a control. Viruses pseudotyped with a specific Env were added to each well and incubated briefly at room temperature. Cf2Th-CD4/CCR5 cells were detached with StemPro Accutase Cell Dissociation Reagent (Invitrogen, cat #A11105-01), washed once, and 5000 cells were added to each well. […] Following incubation, the medium was aspirated and cells were lysed with 30 μl of Passive Lysis Buffer (Promega, cat #E1941). The activity of the firefly luciferase, which was used as a reporter protein in the system, was measured with a Centro LB 960 luminometer (Berthold Technologies, Oak Ridge, Tenn.). One hundred microliters of assay buffer (15 mM MgSO4, 15 mM KH2PO4/K2HPO4 pH 7.8, 1 mM ATP and 1 mM DTT) was injected to each well, followed by a 50 μl injection of 1 mM Dluciferin potassium salt (BD Pharmingen, San Jose, Calif.); luminescence was measured for 2 sec. Infection of PBMC was done as above, but 20,000-40,000 cells/well and viruses concentrated by ultracentrifugation were used. After four hours of incubation with viruses, the cells were centrifuged at 200×g for 6 minutes at 4° C., resuspended in 100 μl RPMI-PBMC medium and incubated at 37° C. for an additional 36-40 hours (total 40-44 hours). Supernatant was removed after centrifugation at 400×g for 5 minutes and cells were processed to detect luciferase activity, as described above.
The effect of 18A on viral infection was tested using recombinant HIV-1 pseudotyped with the envelope glycoproteins of different primate immunodeficiency viruses or the amphotropic murine leukemia virus (A-MLV) as a control.

[4] = test system: JR-FL and KB9 Env chimeras; experiment: Viral infection assay, JR-FL/KB9 Env chimeras; format: cell-based, HIV-1
Experimental: as §1, §2

[5] = Env with KB9 gp120 and JR-FL gp41

In the case of `O=C(N/N=C/c1ccc(O)cc1)Nc1cccc2nsnc12` [Compound 18A], the IC50 [1] is reported as 15.1 ± 1.1 µM, the IC50 ([2]; read-out: IC50 values of the majority (75%) of CCR5-using HIV-1 isolates) is reported as less than 6 µM and the IC50 ([2]; read-out: average IC50 for all CCR5-using HIV-1 isolates) is reported as 5.7 µM. For the same molecule, the IC50 ([3]; Cf2Th-CD4/CCR5 cells, read-out: IC50 for the control A-MLV) was 56 µM, the IC50 ([3]; Example 8 table, read-out: IC50 (A-MLV)) was 56.5 µM and the sensitivity to inhibition ([4]; Env with JR-FL gp120 and KB9 gp41) was “nearly as sensitive as the parental JR-FL Env”. The “fold more sensitive than parental KB9 Env” value [4, 5] was 2 fold, the “fold resistance relative to JR-FL Env” value [4, 5] was “about 5 fold” and the sensitivity to inhibition ([4]; major variable loops of JR-FL gp120 grafted onto KB9 Env) was “nearly as sensitive to 18A inhibition as JR-FL”.
